Source: the OligoGym collection
HELM strings list units from the 5' end as sugar, base in round brackets, then linkage (d deoxyribose, r ribose, m 2'-O-methyl, p phosphodiester). Strings are as the collection lists them; they lack the last nucleoside at the 3' end of the tested compound. [moe] = 2'-O-(2-methoxyethyl) (MOE); [sp] = phosphorothioate linkage; [m5C] = 5-methylcytosine

target: SCN2A; assay: mouse, dose not given; conditions: ASO

Question: With “RNA1{[moe]([m5C])[sp].[moe](A)p.[moe]([m5C])p.[moe](G)p.[moe]([m5C])p.[moe](T)p.d(T)[sp].d(A)[sp].d([m5C])[sp].d(A)[sp].d(T)[sp].d([m5C])[sp].d(A)[sp].d(A)[sp].d(A)[sp].d([m5C])[sp].[moe](A)p.[moe](T)[sp].[moe]([m5C])}$$$$ (last 3' nucleoside missing)” as the substance, how does the 3 h FOB score read?
Answer: 0 score 0-7

Question: Which 3 h FOB score does the source give for “RNA1{[moe]([m5C])[sp].[moe](T)p.[moe](G)p.[moe](G)p.[moe](A)p.d([m5C])[sp].d([m5C])[sp].d(G)[sp].d(T)[sp].d([m5C])[sp].d(T)[sp].d([m5C])[sp].d(T)[sp].d(T)[sp].d(T)[sp].[moe]([m5C])p.[moe](T)p.[moe](T)[sp].[moe](A)}$$$$ (last 3' nucleoside missing)” here?
Answer: 1 score 0-7

Question: For “RNA1{[moe]([m5C])[sp].[moe](A)p.[moe]([m5C])p.[moe](G)p.[moe](A)p.d([m5C])[sp].d(A)[sp].d(T)[sp].d(A)[sp].d(T)[sp].d(T)[sp].d(T)[sp].d(T)[sp].d(T)[sp].d([m5C])[sp].[moe](T)p.[moe](A)p.[moe]([m5C])[sp].[moe](A)}$$$$ (last 3' nucleoside missing)”, which 3 h FOB score is on record?
Answer: 0 score 0-7

Question: With “RNA1{[moe]([m5C])[sp].[moe]([m5C])p.[moe](A)p.[moe](G)p.d(T)[sp].d(T)[sp].d(T)[sp].d(T)[sp].d(T)[sp].d(T)[sp].d([m5C])[sp].d(A)[sp].d(T)[sp].d(T)[sp].[moe](G)p.[moe]([m5C])p.[moe](A)p.[moe](T)[sp].[moe]([m5C])}$$$$ (last 3' nucleoside missing)” as the substance, how does the 3 h FOB score read?
Answer: 0 score 0-7

Question: “RNA1{[moe](T)[sp].[moe](T)p.[moe]([m5C])p.[moe](T)p.[moe](G)p.[moe]([m5C])p.d(A)[sp].d(T)[sp].d(G)[sp].d(T)[sp].d(A)[sp].d(A)[sp].d([m5C])[sp].d([m5C])[sp].d(T)[sp].d(T)[sp].[moe](T)p.[moe](A)[sp].[moe](T)}$$$$ (last 3' nucleoside missing)” was tested. Which 3 h FOB score did it give?
Answer: 0 score 0-7

Question: With “RNA1{[moe](G)[sp].[moe](A)p.[moe]([m5C])p.[moe]([m5C])p.d(G)[sp].d(A)[sp].d(A)[sp].d(T)[sp].d(T)[sp].d([m5C])[sp].d(T)[sp].d(A)[sp].d(T)[sp].d(T)[sp].[moe](T)p.[moe](T)p.[moe](A)p.[moe](T)[sp].[moe](A)}$$$$ (last 3' nucleoside missing)” as the substance, how does the 3 h FOB score read?
Answer: 0 score 0-7

Question: With “RNA1{[moe](T)[sp].[moe]([m5C])p.[moe](T)p.[moe](G)[sp].d([m5C])[sp].d(A)[sp].d(T)[sp].d(G)[sp].d(T)[sp].d(A)[sp].d(A)[sp].d([m5C])[sp].[moe]([m5C])p.[moe](T)p.[moe](T)p.[moe](T)[sp].[moe](A)}$$$$ (last 3' nucleoside missing)” as the substance, how does the 3 h FOB score read?
Answer: 2 score 0-7

Question: How did the 3 h FOB score turn out when “RNA1{[moe](A)[sp].[moe]([m5C])p.[moe]([m5C])p.[moe](A)p.d([m5C])[sp].d(G)[sp].d([m5C])[sp].d(T)[sp].d(T)[sp].d(A)[sp].d([m5C])[sp].d(A)[sp].d(T)[sp].d([m5C])[sp].[moe](A)p.[moe](A)p.[moe](A)p.[moe]([m5C])[sp].[moe](A)}$$$$ (last 3' nucleoside missing)” was run?
Answer: 0 score 0-7

Question: How did the 3 h FOB score turn out when “RNA1{[moe](T)[sp].[moe]([m5C])p.[moe](T)p.[moe](G)p.[moe]([m5C])p.[moe](A)[sp].d(T)[sp].d(G)[sp].d(T)[sp].d(A)[sp].d(A)[sp].d([m5C])[sp].d([m5C])[sp].d(T)[sp].[moe](T)p.[moe](T)[sp].[moe](A)}$$$$ (last 3' nucleoside missing)” was run?
Answer: 0.33 score 0-7

Question: Which 3 h FOB score does the source give for “RNA1{[moe](A)[sp].[moe]([m5C])p.[moe](T)p.[moe](G)p.[moe](G)p.d([m5C])[sp].d(T)[sp].d(A)[sp].d(T)[sp].d(A)[sp].d([m5C])[sp].d(T)[sp].d([m5C])[sp].d(A)[sp].d(T)[sp].[moe](T)p.[moe](G)p.[moe]([m5C])[sp].[moe](T)}$$$$ (last 3' nucleoside missing)” here?
Answer: 1.33 score 0-7

Question: With “RNA1{[moe](T)[sp].[moe]([m5C])p.[moe]([m5C])p.[moe](A)p.[moe]([m5C])p.[moe](G)p.d(A)[sp].d([m5C])[sp].d(A)[sp].d(T)[sp].d(A)[sp].d(T)[sp].d(T)[sp].d(T)[sp].d(T)[sp].d(T)[sp].[moe]([m5C])p.[moe](T)[sp].[moe](A)}$$$$ (last 3' nucleoside missing)” as the substance, how does the 3 h FOB score read?
Answer: 0 score 0-7

Question: Which 3 h FOB score does the source give for “RNA1{[moe](T)[sp].[moe](T)p.[moe](T)p.[moe](G)p.[moe](G)p.d(G)[sp].d(T)[sp].d([m5C])[sp].d(T)[sp].d([m5C])[sp].d(T)[sp].d(T)[sp].d(A)[sp].d(G)[sp].d([m5C])[sp].[moe](T)p.[moe](T)p.[moe](T)[sp].[moe]([m5C])}$$$$ (last 3' nucleoside missing)” here?
Answer: 3.33 score 0-7

Question: “RNA1{[moe]([m5C])[sp].[moe]([m5C])p.[moe](A)p.[moe]([m5C])p.[moe](G)p.[moe](A)p.d([m5C])[sp].d(A)[sp].d(T)[sp].d(A)[sp].d(T)[sp].d(T)[sp].d(T)[sp].d(T)[sp].d(T)[sp].d([m5C])[sp].[moe](T)p.[moe](A)[sp].[moe]([m5C])}$$$$ (last 3' nucleoside missing)” was tested. Which 3 h FOB score did it give?
Answer: 0 score 0-7

Question: How did the 3 h FOB score turn out when “RNA1{[moe](T)[sp].[moe](T)p.[moe](G)p.[moe](A)p.[moe]([m5C])p.d([m5C])[sp].d(A)[sp].d([m5C])[sp].d(G)[sp].d([m5C])[sp].d(T)[sp].d(T)[sp].d(A)[sp].d([m5C])[sp].d(A)[sp].[moe](T)p.[moe]([m5C])p.[moe](A)[sp].[moe](A)}$$$$ (last 3' nucleoside missing)” was run?
Answer: 2 score 0-7

Question: Which 3 h FOB score does the source give for “RNA1{[moe](G)[sp].[moe](A)p.[moe]([m5C])p.[moe]([m5C])p.[moe](A)p.[moe]([m5C])p.d(G)[sp].d([m5C])[sp].d(T)[sp].d(T)[sp].d(A)[sp].d([m5C])[sp].d(A)[sp].d(T)[sp].d([m5C])[sp].d(A)[sp].[moe](A)p.[moe](A)[sp].[moe]([m5C])}$$$$ (last 3' nucleoside missing)” here?
Answer: 0 score 0-7

Question: For “RNA1{[moe](T)[sp].[moe](G)p.[moe](T)p.[moe](T)p.[moe](T)p.d(G)[sp].d(G)[sp].d(G)[sp].d(T)[sp].d([m5C])[sp].d(T)[sp].d([m5C])[sp].d(T)[sp].d(T)[sp].d(A)[sp].[moe](G)p.[moe]([m5C])p.[moe](T)[sp].[moe](T)}$$$$ (last 3' nucleoside missing)”, which 3 h FOB score is on record?
Answer: 2.33 score 0-7

Question: “RNA1{[moe]([m5C])[sp].[moe]([m5C])p.[moe](A)p.[moe](T)p.[moe](T)p.d(T)[sp].d([m5C])[sp].d(T)[sp].d(A)[sp].d(T)[sp].d(A)[sp].d(A)[sp].d([m5C])[sp].d(T)[sp].d([m5C])[sp].[moe](A)p.[moe](G)p.[moe]([m5C])[sp].[moe](A)}$$$$ (last 3' nucleoside missing)” was tested. Which 3 h FOB score did it give?
Answer: 0 score 0-7

Question: For “RNA1{[moe](G)[sp].[moe]([m5C])p.[moe](A)p.[moe](T)p.[moe](A)p.d(A)[sp].d(T)[sp].d([m5C])[sp].d([m5C])[sp].d([m5C])[sp].d(A)[sp].d(T)[sp].d(T)[sp].d(A)[sp].d(T)[sp].[moe](A)p.[moe]([m5C])p.[moe](A)[sp].[moe](A)}$$$$ (last 3' nucleoside missing)”, which 3 h FOB score is on record?
Answer: 0.5 score 0-7

Question: How did the 3 h FOB score turn out when “RNA1{[moe](G)[sp].[moe]([m5C])p.[moe](A)p.[moe](T)p.d(G)[sp].d(T)[sp].d(A)[sp].d(A)[sp].d([m5C])[sp].d([m5C])[sp].d(T)[sp].d(T)[sp].d(T)[sp].d(A)[sp].[moe](T)p.[moe](A)p.[moe]([m5C])p.[moe](A)[sp].[moe](T)}$$$$ (last 3' nucleoside missing)” was run?
Answer: 0 score 0-7

Question: Which 3 h FOB score does the source give for “RNA1{[moe](T)[sp].[moe]([m5C])p.[moe](T)p.[moe](G)p.d([m5C])[sp].d(A)[sp].d(T)[sp].d(G)[sp].d(T)[sp].d(A)[sp].d(A)[sp].d([m5C])[sp].d([m5C])[sp].d(T)[sp].[moe](T)p.[moe](T)p.[moe](A)p.[moe](T)[sp].[moe](A)}$$$$ (last 3' nucleoside missing)” here?
Answer: 1 score 0-7

Question: “RNA1{[moe]([m5C])[sp].[moe]([m5C])p.[moe](A)p.[moe](T)p.d(T)[sp].d(T)[sp].d([m5C])[sp].d(T)[sp].d(A)[sp].d(T)[sp].d(A)[sp].d(A)[sp].d([m5C])[sp].d(T)[sp].[moe]([m5C])p.[moe](A)p.[moe](G)p.[moe]([m5C])[sp].[moe](A)}$$$$ (last 3' nucleoside missing)” was tested. Which 3 h FOB score did it give?
Answer: 0 score 0-7

Question: For “RNA1{[moe](A)[sp].[moe]([m5C])p.[moe](A)p.[moe](T)p.d(A)[sp].d(T)[sp].d(T)[sp].d(T)[sp].d(T)[sp].d(T)[sp].d([m5C])[sp].d(T)[sp].d(A)[sp].d([m5C])[sp].[moe](A)p.[moe]([m5C])p.[moe](T)p.[moe](G)[sp].[moe]([m5C])}$$$$ (last 3' nucleoside missing)”, which 3 h FOB score is on record?
Answer: 0.33 score 0-7

Question: For “RNA1{[moe](A)[sp].[moe](A)p.[moe](T)p.[moe]([m5C])p.[moe](A)p.d([m5C])[sp].d(T)[sp].d(T)[sp].d(T)[sp].d([m5C])[sp].d(A)[sp].d(T)[sp].d([m5C])[sp].d([m5C])[sp].d(A)[sp].[moe]([m5C])p.[moe](G)p.[moe](A)[sp].[moe]([m5C])}$$$$ (last 3' nucleoside missing)”, which 3 h FOB score is on record?
Answer: 0 score 0-7

Question: With “RNA1{[moe](T)[sp].[moe](A)p.[moe](T)p.[moe](T)p.d(T)[sp].d(T)[sp].d(T)[sp].d([m5C])[sp].d(T)[sp].d(A)[sp].d([m5C])[sp].d(A)[sp].d([m5C])[sp].d(T)[sp].[moe](G)p.[moe]([m5C])p.[moe](T)p.[moe](G)[sp].[moe]([m5C])}$$$$ (last 3' nucleoside missing)” as the substance, how does the 3 h FOB score read?
Answer: 0 score 0-7

Question: With “RNA1{[moe]([m5C])[sp].[moe]([m5C])p.[moe](G)p.[moe](A)p.[moe](A)p.d(T)[sp].d(T)[sp].d([m5C])[sp].d(T)[sp].d(A)[sp].d(T)[sp].d(T)[sp].d(T)[sp].d(T)[sp].d(A)[sp].[moe](T)p.[moe](A)p.[moe](A)[sp].[moe](A)}$$$$ (last 3' nucleoside missing)” as the substance, how does the 3 h FOB score read?
Answer: 0.67 score 0-7

Question: Which 3 h FOB score does the source give for “RNA1{[moe](G)[sp].[moe](T)p.[moe]([m5C])p.[moe](T)p.[moe]([m5C])p.d(T)[sp].d(T)[sp].d(T)[sp].d([m5C])[sp].d(T)[sp].d(T)[sp].d(A)[sp].d(T)[sp].d(T)[sp].d(T)[sp].[moe]([m5C])p.[moe](T)p.[moe](G)[sp].[moe](T)}$$$$ (last 3' nucleoside missing)” here?
Answer: 1 score 0-7
